The values that follow come from ChEMBL document CHEMBL3507680, “University of Dundee, Gates Library screen for HepG2 cell viability”.

The structures appear in SMILES notation.

A short description of the series: Human HepG2 cell viability assay in 384 well format. On the set-up: dose 125 nL, time 70.5 hour; concentration not given beside the values. In kind it is toxicity, cell-based. Particulars: HepG2 cells, read-out: Inhibition.
In the case of `CC(C)NC(=O)N1CCN(C(=O)N(C)C)CC2(CC(=O)N(C)C2)C1` (stereo unspecified), the cytotoxicity at 70.5 h is -6.79%. The result for `O[C@]12CCNC[C@H]1CN(c1ncccc1Cl)CC2` reads -16.6%. With `O=C1CC(NS(=O)(=O)c2ccccc2)CN1Cc1ccccc1` (stereo unspecified), the cytotoxicity at 70.5 h was -5.96%. Turning to `Cc1nnc(N2C[C@@H]3CCCO[C@@H]3[C@H](N3CCCC3=O)C2)s1`, the cytotoxicity at 70.5 h was -9.55%. To `Cc1cc(C2CCCN2C(=O)c2csc(-c3cnn(C)c3)n2)on1` (stereo unspecified) belongs 2.44%; to `COc1cc(NCC(O)CN2CCCCCC2)ncn1` (stereo unspecified), -7.58%; to `Cc1cc(C2CCC2)nc(N2CCC3(CCNC(=O)CC3)CC2)n1`, -13%.

In the case of `Nc1cc(O)nc(CCNC(=O)CC[C@@H]2CCCN3CCCC[C@H]23)n1`, the cytotoxicity at 70.5 h is -4.87%.

Regarding `Cc1cc(C(F)(F)F)c2c(C3CCN(S(=O)(=O)N(C)C)CC3)noc2n1`, the cytotoxicity at 70.5 h was -9.87%. To `O=C(C1CC=CC1)N1CCC2(CC1)CN(Cc1ccccn1)CCO2` belongs -4.02%. The result for `Brc1ccc(-c2nnc(CN(Cc3cccs3)CC3CCCO3)o2)s1` (stereo unspecified) reads -14.5%; that for `CCOc1ccnc(N2CCN(C(=O)CCc3ccsc3)CC2)n1`, -7.66%; that for `CCn1c(CN(C)CC(=O)N(C)C)nc2c(F)cccc21`, -11.7%. The result for `O=C(c1cnoc1)N1CCC[C@]2(C[C@H](Oc3ncccc3F)CO2)C1` reads -3.55%; that for `COc1cccc(C2CCCN2C(=O)NCCCn2cccn2)c1` (stereo unspecified), -6.25%. As for `O=C(NC[C@H]1OC[C@@H](NC(=O)C2CCCC2)[C@@H]1O)c1ccncc1`, the cytotoxicity at 70.5 h stood at 13.7%. The result for `O=C(NCC(F)(F)F)C(c1cccnc1)N1CCCC1` (stereo unspecified) reads -5.02%.

Regarding `O=C(CN1CCSC(c2ccccc2)C1)NCc1ccccn1` (stereo unspecified), the cytotoxicity at 70.5 h was -5.23%. The result for `C=C(C)COCCNC(=O)C1CCCN1C(C)=O` (stereo unspecified) reads -13.6%; that for `CNC(=O)c1ccc(S(=O)(=O)NCCc2ccccn2)cc1`, 1.59%. For the molecule `O=C(Cc1cccc(Cl)c1)N[C@@H]1CCNC[C@H]1O`, the cytotoxicity at 70.5 h is -3.16%. To `COCCCN(Cc1ccccn1)S(=O)(=O)c1ccc(OC)cc1` belongs -14.1%; to `CC(C)C(C(=O)N1CCN(c2ccncc2)CC1)n1cncn1` (stereo unspecified), -7.42%.

As for `COCC(=O)NCC[C@H]1CC(C)(C)Oc2ccc(OC)cc21`, the cytotoxicity at 70.5 h was -2.28%. The result for `CC(C)SCc1cccc(NC2CCN(C)C2=O)c1` (stereo unspecified) reads -15.1%; that for `Cc1cc(=O)n(CC(=O)Nc2ccc(C(N)=O)cc2)nc1C`, -4.34%; that for `Cc1nn(C)c(Cl)c1C1CCCN1Cc1nc(-c2ccco2)no1` (stereo unspecified), -6.17%. As to `COc1ccc(C(=O)C2CCCN(c3cc(C#N)ccn3)C2)cc1OC` (stereo unspecified), the cytotoxicity at 70.5 h is -5.09%. As to `O=C(CCCc1ccc(F)cc1)N1C[C@@H](CN2CCOCC2)[C@@H](CO)C1`, the cytotoxicity at 70.5 h was -2.56%. To `COc1ccccc1C(C)N1CCN(S(=O)(=O)N(C)C)CC1` (stereo unspecified) belongs 4.97%; to `CC(C)c1cc(NC(=O)c2ccc(NC3CC3)nc2)[nH]n1`, -5.73%; to `O=C1CCCN1Cc1nnc2n1CCN(Cc1ccco1)C2`, 2.02%. To `Cc1cc(N2CCC(n3cc(CN4CCNCC4)nn3)CC2)ccn1` belongs 24.4%. Take `CCc1cnc(CNC(=O)N2CCCC(c3ncc[nH]3)C2)s1` (stereo unspecified): the cytotoxicity at 70.5 h was -4.75%. The result for `Cc1cnn(CC2CN(CC(=O)Nc3cc(C)no3)CCO2)c1` (stereo unspecified) reads -9.53%; that for `Cc1ccsc1CNC(=O)Cc1c(C)nc2c(c1C)c(=O)[nH]n2C`, -12.2%; that for `CCOC(=O)N1[C@@H](c2ccco2)[C@@H](C(=O)O)C[C@]12CCCCNC2=O`, -7.52%. To `Cn1ncc2c(=O)[nH]c(N3CCN(C(=O)c4ccsc4)CC3)nc21` belongs 14.1%; to `Cc1nnc(SCCC(=O)N(C)Cc2c(F)cccc2Cl)[nH]1`, -3.01%; to `O=C(c1ccc(Br)o1)N1CCN(Cc2ccc(OC(F)(F)F)cc2)CC1`, -2.19%. To `Cn1ccc2c(-c3ccc(NC4CC4)nn3)ccnc21` belongs -5.5%. Turning to `Cc1nc(N(C)C)nc(C)c1NC(=O)c1ccccc1F`, the cytotoxicity at 70.5 h was -7.08%.

Regarding `O=C(NCCc1cccc(F)c1)NCC(O)c1cccc(F)c1` (stereo unspecified), the cytotoxicity at 70.5 h was -5.32%. Turning to `CC(C)n1nc2c(cc1=O)CN(c1nc3ccccc3s1)CC2`, the cytotoxicity at 70.5 h was 3.31%. The result for `Cc1[nH]ncc1CCCNC(=O)Nc1ccc(S(C)(=O)=O)nc1` reads 10.3%; that for `Cc1ccc(C(=O)N2CCc3c(COCC4CC4)cncc3C2)o1`, 18.4%. With `CCn1ncc2c1CN(C(=O)Cc1ccccn1)CC2COC` (stereo unspecified), the cytotoxicity at 70.5 h was -3.07%.

In the case of `c1cc(CN2CCc3cncnc3C2)c2c(c1)OCCO2`, the cytotoxicity at 70.5 h was -6.07%. To `CC(C)Cc1cc(NC(=O)c2ccccc2)n(C)n1` belongs -15.4%.

Regarding `Cc1cc(C)n(C2CCCN(C(=O)CCCc3ccccn3)C2)n1` (stereo unspecified), the cytotoxicity at 70.5 h was -0.29%. To `Cc1ccc(NC2CCN(C(=O)c3ccc(C)o3)CC2)nn1` belongs -0.446%. To `Cc1nn(C)c2c(NCc3ccc(F)cc3)nc(C3CC3)nc12` belongs -5.76%. To `CC(NC(N)=O)C(=O)N(C)CCCc1cc(-c2ccccc2)no1` (stereo unspecified) belongs -21.7%; to `Cc1cnc(N2C[C@@H]3CCN(CC4CC4)C(=O)[C@H]3C2)nc1`, -4.98%.

Regarding `Clc1cnccc1N1CCCOCC1`, the cytotoxicity at 70.5 h is -5.38%. The result for `Cc1nn(-c2ccc(C(=O)O)cc2)c2c1C(c1cccs1)SCC(=O)N2` (stereo unspecified) reads 0.275%. The result for `O=C(Nc1ccc(F)cc1)C1CSCN1` (stereo unspecified) reads -10.2%; that for `CC1N(c2cnn(C)c2)C(=O)COC12CCN(CC1CC1)CC2` (stereo unspecified), -3.07%; that for `CSc1cc2c(cc1NC(=O)NCCn1ccnc1)OCCO2`, -3%.

Turning to `Cn1cccc1C(=O)N[C@@H]1CN(CC2CC2)[C@@H]2COC[C@@H]21`, the cytotoxicity at 70.5 h was -5.94%.

Turning to `O=C(c1ccc(-n2cccn2)nc1)N1CCC(Nc2cccnn2)CC1`, the cytotoxicity at 70.5 h was -18.2%. The result for `CC(C)(C)OC(=O)NC1CCCN(Cc2cccc(O)c2)C1` (stereo unspecified) reads -4.69%; that for `Cc1cccnc1CN1CC[C@H](Oc2cccc(F)c2)[C@@](C)(O)C1`, -0.828%. The result for `c1csc(-c2noc(C3CNC3)n2)c1` reads -8.98%; that for `Cc1ccnc(OC[C@]23COC[C@H]2CN(C(=O)c2ncccn2)C3)n1`, 21.2%. To `COc1ccccc1OCC(=O)NCC(C)(O)C1CC1` (stereo unspecified) belongs -15.3%; to `CC1CCCN(CCNC(=O)c2scnc2Cl)C1` (stereo unspecified), -7.04%; to `Cn1ncc2c1NC(=O)CC2c1ccccc1Cl` (stereo unspecified), -5.68%. On to `O=C1NC2(CCN(C(=O)CN3CCOCC3)CC2)Nc2ccc(Cl)cc21`, for which the cytotoxicity at 70.5 h was -2.29%. To `CSCCCN1C[C@H](NC(=O)c2ccc(C#N)nc2)[C@@H](C2CC2)C1` belongs -0.265%.

Regarding `CCn1cc(CN2CCC(CCC(=O)Nc3ccccc3Cl)CC2)cn1`, the cytotoxicity at 70.5 h amounted to 12.4%.
